Experimental data: patent US8058395B2, “Chimeric protein comprising a green fluorescent ptotein fused to a transcription factor” (The United States of America as represented by the …, priority 1995, dated 2011)

How the values were obtained:
Assay type in all cases: cell-based
[1] = target: T1, GFP-GR (Rattus norvegicus, UniProt P06536, C656G/D98G); assay: Cytoplasm-to-nuclear translocation of GFP-GR in living transfected murine adenocarcinoma cells (video/confocal microscopy)
T1 construct: expressed in transfected cells; host or cells: 1471.1 cells (murine C127 adenocarcinoma derivative); 3134 cells (C127 derivative) for gene targeting

[2] = target: T1, GFP-GR; assay: Activation of endogenous multi-copy MMTV LTR-CAT reporter in 1471.1 cells expressing GFP-GR (ligand specificity); details: 4 hrs, dex 1 nM and 10 nM, RU486 10 nM
[3] = target: T1, GFP-GR; assay: Intranuclear accumulation pattern (foci) of GFP-GR, confocal microscopy and 3D reconstruction; details: ligand-treated cells

| SMILES | fluorescing cells in which translocation of GFP-GR occurs [1] [%] | activation of MMTV LTR-CAT reporter [2] | extent of GFP-GR cytoplasm-to-nuclear translocation ([1]; 10 nM ligand, 30 min at 37° C.) | intranuclear focal accumulation pattern of GFP-GR [3] |
| --- | --- | --- | --- | --- |
| C[C@@H]1C[C@H]2[C@@H]3CCC4=CC(=O)C=C[C@]4(C)[C@@]3(F)[C@@H](O)C[C@]2(C)[C@@]1(O)C(=O)CO [dexamethasone] | 100 | – | – | – |
| C[C@]12CC[C@@H]3c4ccc(O)cc4CC[C@H]3[C@@H]1CC[C@@H]2O [17-β-estradiol] | – | fails to activate | did not cause intranuclear GFP-GR accumulation | not observed |
